Data from patent US20230416330A1, “Optimized GIP Peptide Analogues” (Antag Therapeutics ApS, priority 2019, published 2023).
Read-outs that look alike come from different tables or passages of the source. Starred links: 1 amine or outer side, 2 acyl side, 3 side chain; linkers in the order of their positions; H or OH if unused. Non-standard residues stand in square brackets, D forms with d. Residues, ends and D or L forms follow the SMILES beside them. Groups on a side chain read outwards from the residue. *: point of attachment. C18 diacid = O=C(O)CCCCCCCCCCCCCCCCC(=O)*; C16 diacid = O=C(O)CCCCCCCCCCCCCCC(=O)*; γGlu = O=C(O)[C@H](CCC(=O)[*:2])N[*:1]; Glutaryl = O=C(CCCC(=O)[*:2])[*:1]; Nle = CCCC[C@H](N)C(=O)O; AEEA = NCCOCCOCC(=O)O; Aib = CC(C)(N)C(=O)O

Columns and labels:
[1] = biological target: T1, human GIP receptor (Homo sapiens, UniProt P48546); assay: cAMP assay Alternative 1 (CisBio assay), GIPR antagonism; format: cell-based; conditions: for cAMP antagonism % inhib: % inhibition of Emax
T1 construct: host or cells: HEK-293 cells, transient transfection (Lipofectamine 2000), cDNA in pCMV-Script vector
T1 sequence (P48546 22-466): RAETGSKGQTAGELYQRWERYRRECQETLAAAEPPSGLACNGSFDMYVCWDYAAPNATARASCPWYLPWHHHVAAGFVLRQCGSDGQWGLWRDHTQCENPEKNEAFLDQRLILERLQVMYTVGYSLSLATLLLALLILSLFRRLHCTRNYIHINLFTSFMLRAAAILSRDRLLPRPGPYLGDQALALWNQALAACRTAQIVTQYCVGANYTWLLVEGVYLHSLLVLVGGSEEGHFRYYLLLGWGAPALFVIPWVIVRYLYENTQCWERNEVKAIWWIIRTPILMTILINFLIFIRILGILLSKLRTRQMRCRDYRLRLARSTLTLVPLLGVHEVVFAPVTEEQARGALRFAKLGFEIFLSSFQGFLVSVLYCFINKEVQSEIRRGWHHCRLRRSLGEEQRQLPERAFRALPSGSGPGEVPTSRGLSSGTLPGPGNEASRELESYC
How it was run: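 HEK293 cells transiently transfected with hGIPR, compounds diluted in HBSS/HEPES/pluronic/casein with 500 uM IBMX; decrease in intracellular cAMP read by HTRF (665/620 nm) and converted via cAMP standard curve. pIC50 from four-parameter fit; agonism tested separately after 30 min at 37° C.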

[2] = Physical stability: fibril formation in Thioflavin T (ThT) assay with agitation; format: physicochemical; conditions: 1 mg/ml, 25° C., agitation
How it was run: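 Read-out is continuous ThT fluorescence at 486 nm, with lag time taken where signal reaches 10% between pre- and post-transition baselines. Filtered samples (1, 5, 7.5 or 15 mg/ml; pH 7.4 phosphate buffer or NaOH-adjusted water) were stressed at 25° C. by orbital rotation at 300 rpm with one silica bead per well.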

[3] = Solubility by visual inspection of peptide solutions; format: physicochemical; conditions: 1 mg/ml, TFA, Phosphate (7.4)
How it was run: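 Solubility scored by eye: clear, colorless appearance after gentle mixing. Samples prepared at 1, 5, 7.5 or 15 mg/ml in either pH 7.4 water (NaOH-adjusted) or 50 mM sodium phosphate buffer, pH 7.4.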

CCCC[C@H](NC(=O)C(C)(C)NC(=O)[C@@H](NC(=O)[C@H](CO)NC(=O)[C@H](Cc1ccc(O)cc1)NC(=O)[C@H](CCC(=O)O)NC(=O)[C@H](CO)NC(=O)[C@@H](NC(=O)[C@H](Cc1ccccc1)NC(=O)[C@@H](NC(=O)CNC(=O)[C@@H](N)CCC(=O)O)[C@@H](C)O)[C@@H](C)CC)[C@@H](C)CC)C(=O)N[C@@H](CCC(=O)O)C(=O)N[C@@H](CCCCN)C(=O)N[C@H](C(=O)N[C@@H](CCCCNC(=O)CCCCCCCCCCCCCCC(=O)O)C(=O)N[C@@H](CCC(N)=O)C(=O)N[C@@H](CCC(N)=O)C(=O)N[C@@H](CCC(=O)O)C(=O)N[C@@H](Cc1ccccc1)C(=O)N[C@H](C(=O)N[C@@H](CCC(=O)O)C(=O)N[C@@H](Cc1c[nH]c2ccccc12)C(=O)N[C@@H](CC(C)C)C(=O)N[C@@H](CC(C)C)C(=O)N[C@@H](C)C(=O)N[C@@H](CCC(N)=O)C(=O)N[C@@H](CCCCN)C(=O)N1CCC[C@H]1C(=O)N[C@@H](CO)C(=O)N[C@@H](CO)C(=O)NCC(=O)N[C@@H](C)C(=O)N1CCC[C@H]1C(=O)N1CCC[C@H]1C(=O)N1CCC[C@H]1C(=O)N[C@@H](CO)C(=O)O)C(C)C)[C@@H](C)CC [AT674] (H-EGTFISEYSI[Aib][Nle]EKIK(C16 diacid)QQEFVEWLLAQKPSSGAPPPS-OH; N-terminus assumed)
cAMP antagonism % inhib ([1]; Table 2B): 93% | IC50 ([1]; Table 2B, HEK-293 cells transiently expressing hGIPR, agonist GIP1-42 at EC50, read-out: cAMP antagonism): 0.447 nM | Avr lag time (h) ([2]; TFA, Phosphate (7.4)): fnd (Fnd = fibrils not detected within experiment time (96 hours) with agitation.) | Visual appearance [3]: Clear

CC[C@H](C)[C@H](NC(=O)[C@H](CO)NC(=O)[C@H](Cc1ccc(O)cc1)NC(=O)[C@H](CC(=O)O)NC(=O)[C@H](CO)NC(=O)[C@@H](NC(=O)[C@H](Cc1ccccc1)NC(=O)[C@@H](NC(=O)CNC(=O)CCCC(=O)O)[C@@H](C)O)[C@@H](C)CC)C(=O)N[C@@H](C)C(=O)N[C@@H](CCSC)C(=O)N[C@@H](CC(=O)O)C(=O)N[C@@H](CCCCN)C(=O)N[C@H](C(=O)N[C@@H](CCCCNC(=O)CCCCCCCCCCCCCCC(=O)O)C(=O)N[C@@H](CCC(N)=O)C(=O)N[C@@H](CCC(N)=O)C(=O)N[C@@H](CC(=O)O)C(=O)N[C@@H](Cc1ccccc1)C(=O)N[C@H](C(=O)N[C@@H](CC(N)=O)C(=O)N[C@@H](Cc1c[nH]c2ccccc12)C(=O)N[C@@H](CC(C)C)C(=O)N[C@@H](CC(C)C)C(=O)N[C@@H](C)C(=O)N[C@@H](CCC(N)=O)C(=O)N[C@@H](CCCCN)C(=O)N1CCC[C@H]1C(=O)N[C@@H](CO)C(=O)N[C@@H](CO)C(=O)NCC(=O)N[C@@H](C)C(=O)N1CCC[C@H]1C(=O)N1CCC[C@H]1C(=O)N1CCC[C@H]1C(=O)N[C@@H](CO)C(=O)O)C(C)C)[C@@H](C)CC [AT677] (Glutaryl-GTFISDYSIAMDKIK(C16 diacid)QQDFVNWLLAQKPSSGAPPPS-OH)
IC50 [1]: 0.447 nM | cAMP antagonism % inhib ([1]; Table 2B): 93% | Avr lag time ([2]; Na, MilliQ (8)): <24 h | Avr lag time ([2]; TFA, Phosphate (7.4)): 16.5 ± 2.3 h | Visual appearance [3]: Clear

CC[C@H](C)[C@H](NC(=O)[C@H](CCCCN)NC(=O)[C@H](CC(=O)O)NC(=O)[C@H](CC(C)C)NC(=O)C(C)(C)NC(=O)[C@@H](NC(=O)[C@H](CO)NC(=O)[C@H](Cc1ccc(O)cc1)NC(=O)[C@H](CC(=O)O)NC(=O)[C@H](CO)NC(=O)[C@@H](NC(=O)[C@H](Cc1ccccc1)NC(=O)[C@@H](NC(=O)CNC(=O)[C@@H](N)CCC(=O)O)[C@@H](C)O)[C@@H](C)CC)[C@@H](C)CC)C(=O)N[C@@H](CCCCNC(=O)COCCOCCNC(=O)COCCOCCNC(=O)CC[C@H](NC(=O)CCCCCCCCCCCCCCCCC(=O)O)C(=O)O)C(=O)N[C@@H](CCC(N)=O)C(=O)N[C@@H](CCC(N)=O)C(=O)N[C@@H](CC(=O)O)C(=O)N[C@@H](Cc1ccccc1)C(=O)N[C@H](C(=O)N[C@@H](CCC(=O)O)C(=O)N[C@@H](Cc1c[nH]c2ccccc12)C(=O)N[C@@H](CC(C)C)C(=O)N[C@@H](CC(C)C)C(=O)N[C@@H](C)C(=O)N[C@@H](CCC(N)=O)C(=O)N[C@@H](CCCCN)C(=O)N1CCC[C@H]1C(=O)N[C@@H](CO)C(=O)N[C@@H](CO)C(=O)NCC(=O)N[C@@H](C)C(=O)N1CCC[C@H]1C(=O)N1CCC[C@H]1C(=O)N1CCC[C@H]1C(=O)N[C@@H](CO)C(=O)O)C(C)C [AT685] (H-EGTFISDYSI[Aib]LDKIK([AEEA-AEEA-γGlu-C18 diacid])QQDFVEWLLAQKPSSGAPPPS-OH; N-terminus assumed)
cAMP antagonism % inhib ([1]; Table 2B): 83% | Avr lag time (h) ([2]; TFA, Phosphate (7.4)): fnd (Fnd = fibrils not detected within experiment time (96 hours) with agitation.) | Visual appearance [3]: Clear

CC[C@H](C)[C@H](NC(=O)[C@H](CO)NC(=O)[C@H](Cc1ccc(O)cc1)NC(=O)[C@H](CCC(=O)O)NC(=O)[C@H](CO)NC(=O)[C@@H](NC(=O)[C@H](Cc1ccccc1)NC(=O)[C@@H](NC(=O)CNC(=O)[C@@H](N)CCC(=O)O)[C@@H](C)O)[C@@H](C)CC)C(=O)N[C@@H](C)C(=O)N[C@@H](CC(C)C)C(=O)N[C@@H](CCC(=O)O)C(=O)N[C@@H](CCCCN)C(=O)N[C@H](C(=O)N[C@@H](CCCCNC(=O)COCCOCCNC(=O)COCCOCCNC(=O)CC[C@H](NC(=O)CCCCCCCCCCCCCCCCC(=O)O)C(=O)O)C(=O)N[C@@H](CCC(N)=O)C(=O)N[C@@H](CCC(N)=O)C(=O)N[C@@H](CCC(=O)O)C(=O)N[C@@H](Cc1ccccc1)C(=O)N[C@H](C(=O)N[C@@H](CCC(=O)O)C(=O)N[C@@H](Cc1c[nH]c2ccccc12)C(=O)N[C@@H](CC(C)C)C(=O)N[C@@H](CC(C)C)C(=O)N[C@@H](C)C(=O)N[C@@H](CCC(N)=O)C(=O)N[C@@H](CCCCN)C(=O)N1CCC[C@H]1C(=O)N[C@@H](CO)C(=O)N[C@@H](CO)C(=O)NCC(=O)N[C@@H](C)C(=O)N1CCC[C@H]1C(=O)N1CCC[C@H]1C(=O)N1CCC[C@H]1C(=O)N[C@@H](CO)C(=O)O)C(C)C)[C@@H](C)CC [AT693] (H-EGTFISEYSIALEKIK([AEEA-AEEA-γGlu-C18 diacid])QQEFVEWLLAQKPSSGAPPPS-OH; N-terminus assumed)
cAMP antagonism % inhib ([1]; Table 2B): 96% | Avr lag time (h) ([2]; TFA, Phosphate (7.4)): fnd (Fnd = fibrils not detected within experiment time (96 hours) with agitation.) | Visual appearance [3]: Clear

CCCC[C@H](NC(=O)[C@H](C)NC(=O)[C@@H](NC(=O)[C@H](CO)NC(=O)[C@H](Cc1ccc(O)cc1)NC(=O)[C@H](CCC(=O)O)NC(=O)[C@H](CO)NC(=O)[C@@H](NC(=O)[C@H](Cc1ccccc1)NC(=O)[C@@H](NC(=O)CNC(=O)[C@@H](N)CCC(=O)O)[C@@H](C)O)[C@@H](C)CC)[C@@H](C)CC)C(=O)N[C@@H](CCC(=O)O)C(=O)N[C@@H](CCCCN)C(=O)N[C@H](C(=O)N[C@@H](CCCCNC(=O)COCCOCCNC(=O)COCCOCCNC(=O)CC[C@H](NC(=O)CCCCCCCCCCCCCCCCC(=O)O)C(=O)O)C(=O)N[C@@H](CCC(N)=O)C(=O)N[C@@H](CCC(N)=O)C(=O)N[C@@H](CCC(=O)O)C(=O)N[C@@H](Cc1ccccc1)C(=O)N[C@H](C(=O)N[C@@H](CCC(=O)O)C(=O)N[C@@H](Cc1c[nH]c2ccccc12)C(=O)N[C@@H](CC(C)C)C(=O)N[C@@H](CC(C)C)C(=O)N[C@@H](C)C(=O)N[C@@H](CCC(N)=O)C(=O)N[C@@H](CCCCN)C(=O)N1CCC[C@H]1C(=O)N[C@@H](CO)C(=O)N[C@@H](CO)C(=O)NCC(=O)N[C@@H](C)C(=O)N1CCC[C@H]1C(=O)N1CCC[C@H]1C(=O)N1CCC[C@H]1C(=O)N[C@@H](CO)C(=O)O)C(C)C)[C@@H](C)CC [AT694] (H-EGTFISEYSIA[Nle]EKIK([AEEA-AEEA-γGlu-C18 diacid])QQEFVEWLLAQKPSSGAPPPS-OH; N-terminus assumed)
cAMP antagonism % inhib ([1]; Table 2B): 88% | Avr lag time (h) ([2]; TFA, Phosphate (7.4)): fnd (Fnd = fibrils not detected within experiment time (96 hours) with agitation.) | Visual appearance [3]: Clear
